IC50 data for 24 molecules are collected here from patent US10167279B2 (NOVARTIS AG, priority 2014, dated 2019).

One may read the IC50 as the concentration that inhibits the measured activity by half.

Sequence of C-Raf FL (P04049 whole entry Y340E/Y341E): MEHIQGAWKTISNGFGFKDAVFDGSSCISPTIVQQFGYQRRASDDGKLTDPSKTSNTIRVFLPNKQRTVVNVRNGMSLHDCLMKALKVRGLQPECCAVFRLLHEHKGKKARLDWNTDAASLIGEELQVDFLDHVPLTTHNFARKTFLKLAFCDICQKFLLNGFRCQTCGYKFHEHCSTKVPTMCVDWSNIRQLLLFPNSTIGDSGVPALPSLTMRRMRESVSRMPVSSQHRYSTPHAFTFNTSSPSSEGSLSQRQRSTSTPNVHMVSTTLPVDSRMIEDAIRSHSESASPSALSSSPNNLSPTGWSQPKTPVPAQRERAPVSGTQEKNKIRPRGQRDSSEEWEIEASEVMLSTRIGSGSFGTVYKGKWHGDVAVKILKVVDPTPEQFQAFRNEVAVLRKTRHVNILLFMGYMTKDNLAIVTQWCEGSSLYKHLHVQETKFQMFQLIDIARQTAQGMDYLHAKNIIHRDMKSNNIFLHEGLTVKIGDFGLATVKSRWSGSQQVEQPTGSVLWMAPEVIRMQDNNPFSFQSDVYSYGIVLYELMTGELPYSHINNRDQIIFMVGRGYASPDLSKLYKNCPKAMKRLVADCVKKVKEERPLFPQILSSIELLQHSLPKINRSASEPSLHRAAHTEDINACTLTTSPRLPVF
Sequence of C-Raf FL (P63104 whole entry partner): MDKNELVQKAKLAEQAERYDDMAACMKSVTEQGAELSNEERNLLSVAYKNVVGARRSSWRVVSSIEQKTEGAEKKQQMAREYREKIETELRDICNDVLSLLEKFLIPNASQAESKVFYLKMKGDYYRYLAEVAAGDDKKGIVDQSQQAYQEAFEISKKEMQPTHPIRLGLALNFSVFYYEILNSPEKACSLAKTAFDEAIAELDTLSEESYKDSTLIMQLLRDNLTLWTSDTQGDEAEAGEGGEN

This assay addresses C-Raf FL (Homo sapiens (Human), UniProt P04049, Y340E/Y341E). The assay is described as follows: In vitro Raf activity determination (Alpha Screen, phospho-MEK), C-Raf FL (full length, Y340E/Y341E). In kind it is biochemical. The note with it: ATP 1 μM; 60 min pre-incubation; 1 hour reaction; column head does not say FL or TR. Put shortly: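 Read-out is AlphaScreen luminescence using rabbit anti-p-MEK with protein A beads after EDTA stop, with IC50 fitted by non-linear regression. Reaction: Sf9-derived C-Raf plus biotinylated E. coli MEK1 K97R substrate, pH 7.5 Tris/MgCl2/DTT buffer, compound preincubated 60 min at room temperature.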
Turning to `Cc1ccc(NC(=O)c2ccnc(C(C)(F)F)c2)cc1-c1cc(OCCO)nc(C2(CO)CCOCC2)c1` [Example 216, 2-(1,1-difluoroethyl)-N-(3-(2-(2-hydroxyethoxy)-6-(4-(hydroxymethyl)tetrahydro-2H-pyran-4-yl)pyridin-4-yl)-4-methylphenyl) isonicotinamide], half-maximal inhibition (IC50) required 0.2 nM. The molecule `Cc1ccc(NC(=O)c2cnnc(C(F)(F)F)c2)cc1-c1cc(OCCO)nc(C2(CO)CCOCC2)c1` [Example 217] returned a 50% inhibitory concentration (IC50) of 0.3 nM. In turn, `Cc1ccc(NC(=O)c2cc(C(F)(F)F)ccn2)cc1-c1cc(OCCO)nc(C2(CO)CCOCC2)c1` [Example 219] displayed an IC50 of 0.5 nM. This IC50 is about 1.7-fold higher than that of the molecule before.

`Cc1nc2cc(C3CCOCC3)cc(-c3cc(NC(=O)c4ccnc(C(F)(F)F)c4)ccc3C)c2[nH]1` [Example 220, N-(4-methyl-3-(2-methyl-5-(tetrahydro-2H-pyran-4-yl)-1H-benzo[d]imidazol-7-yl)phenyl)-2-(trifluoromethyl) isonicotinamide] gave a 50% inhibitory concentration (IC50) of 0.7 nM. Take `Cc1nc2cc(C3CCOCC3)cc(-c3cc(NC(=O)c4cnnc(C(F)(F)F)c4)ccc3C)c2[nH]1` [Example 221, N-(4-methyl-3-(2-methyl-5-(tetrahydro-2H-pyran-4-yl)-1H-benzo[d]imidazol-7-yl)phenyl)-6-(trifluoromethyl) pyridazine-4-carboxamide]: it took 2 nM to reach half-maximal inhibition (IC50). `Cc1nc2cc(C3CCOCC3)cc(-c3cc(NC(=O)c4ccnc(C(C)(F)F)c4)ccc3C)c2[nH]1` [Example 222, 2-(1,1-difluoroethyl)-N-(4-methyl-3-(2-methyl-5-(tetrahydro-2H-pyran-4-yl)-1H-benzo[d]imidazol-7-yl)phenyl) isonicotinamide] registered a half-inhibitory concentration (IC50) of 0.4 nM. Molecule `Cc1nc2cc(C3CCOCC3)cc(-c3cc(NC(=O)c4ccnc(C(C)(C)C#N)c4)ccc3C)c2[nH]1` [Example 223, 2-(2-cyanopropan-2-yl)-N-(4-methyl-3-(2-methyl-5-(tetrahydro-2H-pyran-4-yl)-1H-benzo[d]imidazol-7-yl)phenyl) isonicotinamide] came in with a half-inhibitory concentration (IC50) of 0.6 nM. Under `Cc1nc2cc(C3CCOCC3)cc(-c3cc(NC(=O)c4cc(C(F)(F)F)ccn4)ccc3C)c2[nH]1` [Example 224, N-(4-methyl-3-(2-methyl-5-(tetrahydro-2H-pyran-4-yl)-1H-benzo[d]imidazol-7-yl)penyl)-4-(trifluoromethyl) picolinamide] stands 5 nM; under `CCOc1nnc(-c2cc(NC(=O)c3ccnc(C(C)(F)F)c3)ccc2C)cc1C1CCOCC1` [Example 225, 2-(1,1-difluoroethyl)-N-(3-(6-ethoxy-5-(tetrahydro-2H-pyran-4-yl)pyridazin-3-yl)-4-methylphenyl) isonicotinamide], 0.02 nM. In turn, `CCOc1nnc(-c2cc(NC(=O)c3cc(C(F)(F)F)c[nH]c3=O)ccc2C)cc1C1CCOCC1` [Example 226, N-(3-(6-ethoxy-5-(tetrahydro-2H-pyran-4-yl)pyridazin-3-yl)-4-methylphenyl)-2-oxo-5-(trifluoromethyl)-1,2-dihydropyridine-3-carboxamide] returned a half-inhibitory concentration (IC50) of 4 nM. For `CCOc1nnc(-c2cc(NC(=O)c3ccnc(C4(C(F)(F)F)CC4)c3)ccc2C)cc1C1CCOCC1` [Example 227, N-(3-(6-ethoxy-5-(tetrahydro-2H-pyran-4-yl)pyridazin-3-yl)-4-methylphenyl)-2-(1-(trifluoromethyl)cyclopropyl) isonicotinamide], the concentration for half-maximal inhibition (IC50) amounted to 0.2 nM. Compared with the last molecule, the IC50 is about 20-fold lower. Molecule `CCOc1nnc(-c2cc(NC(=O)c3cc(C(F)(F)F)c(Cl)cn3)ccc2C)cc1C1CCOCC1` [Example 228, 5-chloro-N-(3-(6-ethoxy-5-(tetrahydro-2H-pyran-4-yl)pyridazin-3-yl)-4-methylphenyl)-4-(trifluoromethyl) picolinamide] returned a 50% inhibitory concentration (IC50) of 0.06 nM.

The molecule `CCOc1nnc(-c2cc(NC(=O)c3ccnc(C#N)c3)ccc2C)cc1C1CCOCC1` [Example 229, 2-cyano-N-(3-(6-ethoxy-5-(tetrahydro-2H-pyran-4-yl)pyridazin-3-yl)-4-methylphenyl)] gave a half-maximal inhibitory concentration (IC50) of 0.7 nM. For `CCOc1nnc(-c2cc(NC(=O)c3cnc(C(F)(F)F)cn3)ccc2C)cc1C1CCOCC1` [Example 230, N-(3-(6-ethoxy-5-(tetrahydro-2H-pyran-4-yl)pyridazin-3-yl)-4-methylphenyl)-5-(trifluoromethyl) pyrazine-2-carboxamide], the IC50 turned out to be 11 nM. This IC50 lies about 16-fold higher than the previous one. `CCOc1nnc(-c2cc(NC(=O)c3cncc(C(F)(F)F)c3)ccc2C)cc1C1CCOCC1` [Example 231, N-(3-(6-ethoxy-5-(tetrahydro-2H-pyran-4-yl)pyridazin-3-yl)-4-methylphenyl)-5-(trifluoromethyl) nicotinamide] came in with an IC50 of 0.2 nM. Molecule `CCOc1nnc(-c2cc(NC(=O)c3cc(C(F)(F)F)ncn3)ccc2C)cc1C1CCOCC1` [Example 232] had a half-inhibitory concentration (IC50) of 0.03 nM. This IC50 lies about 6.7-fold lower than the previous one. Molecule `CCOc1nnc(-c2cc(NC(=O)c3ccnc(C(C)(C)F)c3)cnc2C)cc1C1CCOCC1` [Example 233, N-(5-(6-ethoxy-5-(tetrahydro-2H-pyran-4-yl)pyridazin-3-yl)-6-methylpyridin-3-yl)-2-(2-fluoropropan-2-yl) isonicotinamide] gave a half-maximal inhibitory concentration (IC50) of 2 nM.

In turn, `CCOc1nnc(-c2cc(NC(=O)c3cccc(C(F)(F)F)c3)cnc2C)cc1C1CCOCC1` [Example 234, N-(5-(6-ethoxy-5-(tetrahydro-2H-pyran-4-yl)pyridazin-3-yl)-6-methylpyridin-3-yl)-3-(trifluoromethyl) benzamide] returned a half-inhibitory concentration (IC50) of 0.08 nM. The same measure for `CCOc1nnc(-c2cc(NC(=O)c3ccnc(C(F)(F)F)c3)cnc2C)cc1C1CCOCC1` [Example 236, N-(5-(6-ethoxy-5-(tetrahydro-2H-pyran-4-yl)pyridazin-3-yl)-6-methylpyridin-3-yl)-2-(trifluoromethyl) isonicotinamide]: 0.3 nM; for `CCOc1nnc(-c2cc(NC(=O)c3cnnc(C(F)(F)F)c3)ccc2C)cc1C1CCOCC1` [Example 237, N-(5-(6-ethoxy-5-(tetrahydro-2H-pyran-4-yl)pyridazin-3-yl)-4-methylphenyl)-6-(trifluoromethyl) pyridazine-4-carboxamide]: 0.1 nM. `CCOc1nnc(-c2cc(NC(=O)c3ccnc(C(C)(C)F)c3)ccc2C)cc1C1CCOCC1` [Example 238, N-(3-(6-ethoxy-5-(tetrahydro-2H-pyran-4-yl)pyridazin-3-yl)-4-methylphenyl)-2-(2-fluoropropan-2-yl) isonicotinamide] showed an IC50 of 0.07 nM. Under `CCOc1nnc(-c2cc(NC(=O)c3ccnc(C(F)(F)F)c3)ccc2C)cc1C1CCOCC1` [Example 239, N-(3-(6-ethoxy-5-(tetrahydro-2H-pyran-4-yl)pyridazin-3-yl)-4-methylphenyl)-2-(trifluoromethyl) isonicotinamide] stands 0.04 nM. Consider `CCOc1nnc(-c2cc(NC(=O)c3cc(C(F)(F)F)cnn3)ccc2C)cc1C1CCOCC1` [Example 240, N-(3-(6-ethoxy-5-(tetrahydro-2H-pyran-4-yl)pyridazin-3-yl)-4-methylphenyl)-5-(trifluoromethyl) pyridazine-3-carboxamide], for which 0.04 nM corresponded to half-maximal inhibition (IC50). The molecule `CCOc1nnc(-c2cc(NC(=O)c3cnc(N4CCN(CC)CC4)c(C(F)(F)F)c3)ccc2C)cc1C1CCOCC1` [Example 241, N-(3-(6-ethoxy-5-(tetrahydro-2H-pyran-4-yl)pyridazin-3-yl)-4-methylphenyl)-6-(4-ethylpiperazin-1-yl)-5-(trifluoromethyl) nicotinamide] registered an IC50 of 0.1 nM.
